biological target: PDE4D3 (Homo sapiens, UniProt Q08499)
Sequence (Q08499 1-673 isoform Q08499-2): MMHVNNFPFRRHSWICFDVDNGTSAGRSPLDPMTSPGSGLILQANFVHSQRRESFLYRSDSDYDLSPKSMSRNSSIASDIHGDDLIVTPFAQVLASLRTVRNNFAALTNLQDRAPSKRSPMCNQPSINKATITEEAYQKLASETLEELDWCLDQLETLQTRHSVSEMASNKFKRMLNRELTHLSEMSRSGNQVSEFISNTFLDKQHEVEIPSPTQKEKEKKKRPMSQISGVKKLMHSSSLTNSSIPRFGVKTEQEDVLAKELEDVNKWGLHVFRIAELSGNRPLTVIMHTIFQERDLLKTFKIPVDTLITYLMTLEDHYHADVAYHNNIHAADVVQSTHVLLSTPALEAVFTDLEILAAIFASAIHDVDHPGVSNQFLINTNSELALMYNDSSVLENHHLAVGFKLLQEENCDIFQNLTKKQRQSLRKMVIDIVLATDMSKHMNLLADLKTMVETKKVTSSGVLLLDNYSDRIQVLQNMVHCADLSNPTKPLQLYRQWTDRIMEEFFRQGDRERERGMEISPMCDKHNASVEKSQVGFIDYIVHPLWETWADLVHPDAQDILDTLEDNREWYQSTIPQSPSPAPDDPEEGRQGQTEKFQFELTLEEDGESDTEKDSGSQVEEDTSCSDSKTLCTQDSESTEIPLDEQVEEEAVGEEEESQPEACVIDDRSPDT

Row | EC50 [nM] | Structure (SMILES)
1 | 100 to 1000 | COc1ncc(Cn2cncn2)cc1-c1cc(Cl)cs1 [Example 142, 3-(4-Chlorothiophen-2-yl)-2-methoxy-5-(1H-1,2,4-triazol-1-ylmethyl)pyridine]
2 | < 100 | COc1ncc(Cn2cnc(C)n2)cc1-c1cccc(Cl)c1 [Example 143, 3-(3-Chlorophenyl)-2-methoxy-5-[(3-methyl-1H-1,2,4-triazol-1-yl)methyl]pyridine]
3 | < 100 | COc1ncc(Cn2cncn2)cc1-c1cccc(C(F)F)c1 [Example 144, 3-[3-(Difluoromethyl)phenyl]-2-methoxy-5-(1H-1,2,4-triazol-1-ylmethyl)pyridine]
4 | < 100 | COc1ncc(Cn2cccn2)cc1-c1cccc(Cl)c1 [Example 145, 3-(3-Chlorophenyl)-2-methoxy-5-(1H-pyrazol-1-ylmethyl)pyridine]
5 | 100 to 1000 | COc1ncc(Cn2cnc(C(F)(F)F)n2)cc1-c1cccc(Cl)c1 [Example 146, 3-(3-Chlorophenyl)-2-methoxy-5-{[3-(trifluoromethyl)-1H-1,2,4-triazol-1-yl]methyl}pyridine]
6 | 100 to 1000 | COc1ncc(Cn2cnc(C3CC3)n2)cc1-c1cccc(Cl)c1 [Example 147, 3-(3-Chlorophenyl)-5-[(3-Cyclopropyl-1H-1,2,4-triazol-1-yl)methyl]-2-methoxypyridine]
7 | < 100 | Cc1ncn(Cc2cnc(OC(F)F)c(-c3cccc(Cl)c3)c2)n1 [Example 148, 3-(3-Chlorophenyl)-2-(difluoromethoxy)-5-[(3-methyl-1H-1,2,4-triazol-1-yl)methyl]pyridine]
8 | 1000 to 10000 | COc1ncc(Cn2cnc(C(F)(F)F)c2)cc1-c1cccc(Cl)c1 [Example 149, 3-(3-Chlorophenyl)-2-methoxy-5-{[4-(trifluoromethyl)-1H-imidazol-1-yl]methyl}pyridine]
9 | 100 to 1000 | CC(c1cnc(OC(F)F)c(-c2cccc(Cl)c2)c1)n1cncn1 (stereo not shown) [Example 150, 3-(3-Chlorophenyl)-2-(difluoromethoxy)-5-[1-(1H-1,2,4-triazol-1-yl)ethyl]pyridine]
10 | < 100 | COc1ncc(Cn2cnc(C)n2)cc1-c1cccc(F)c1 [Example 151, 3-(3-Fluorophenyl)-2-methoxy-5-[(3-methyl-1H-1,2,4-triazol-1-yl)methyl]pyridine]
11 | 100 to 1000 | CCOc1ncc(Cn2cnc(C(F)(F)F)n2)cc1-c1cccc(Cl)c1 [Example 152, 3-(3-Chlorophenyl)-2-ethoxy-5-{[3-(trifluoromethyl)-1H-1,2,4-triazol-1-yl]methyl}pyridine]
12 | < 100 | CCOc1ncc(Cn2ncnc2C(F)(F)F)cc1-c1cccc(Cl)c1 [Example 153, 3-(3-Chlorophenyl)-2-ethoxy-5-{[5-(trifluoromethyl)-1H-1,2,4-triazol-1-yl]methyl}pyridine]
13 | 100 to 1000 | Cc1cn(Cc2cnc(OC(F)F)c(-c3cccc(Cl)c3)c2)cn1 [Example 154, 3-(3-Chlorophenyl)-2-(difluoromethoxy)-5-[(4-methyl-1H-imidazol-1-yl)methyl]pyridine]
14 | < 100 | COc1ncc(Cn2cnc(C)n2)cc1-c1cccc(OC(F)F)c1 [Example 155, 3-[3-(Difluoromethoxy)phenyl]-2-methoxy-5-[(3-methyl-1H-1,2,4-triazol-1-yl)methyl]pyridine]
15 | 1000 to 10000 | N#Cc1ncn(Cc2cnc(OC(F)F)c(-c3cccc(Cl)c3)c2)n1 [Example 156, 1-{[5-(3-Chlorophenyl)-6-(difluoromethoxy)pyridin-3-yl]methyl}-1H-1,2,4-triazole-3-carbonitrile]
16 | 100 to 1000 | COCc1ncn(Cc2cnc(OC(F)F)c(-c3cccc(Cl)c3)c2)n1 [Example 157, 3-(3-Chlorophenyl)-2-(difluoromethoxy)-5-{[3-(methoxymethyl)-1H-1,2,4-triazol-1-yl]methyl}pyridine]

Row | EC50 [nM] | Structure (SMILES)
17 | 1000 to 10000 | COCc1ncnn1Cc1cnc(OC(F)F)c(-c2cccc(Cl)c2)c1 [Example 158, 3-(3-Chlorophenyl)-2-(difluoromethoxy)-5-{[5-(methoxymethyl)-1H-1,2,4-triazol-1-yl]methyl}pyridine]
18 | 100 to 1000 | COc1ncc(Cn2cnc(C(F)(F)F)n2)cc1-c1cccc(OC(F)F)c1 [Example 159, 3-[3-(Difluoromethoxy)phenyl]-2-methoxy-5-{[3-(trifluoromethyl)-1H-1,2,4-triazol-1-yl]methyl}pyridine]
19 | 100 to 1000 | COc1ncc(Cn2ncnc2C(F)(F)F)cc1-c1cccc(OC(F)F)c1 [Example 160, 3-[3-(Difluoromethoxy)phenyl]-2-methoxy-5-{[5-(trifluoromethyl)-1H-1,2,4-triazol-1-yl]methyl}pyridine]
20 | 100 to 1000 | FC(F)Oc1ncc(Cn2cnnn2)cc1-c1cccc(Cl)c1 [Example 161, 3-(3-Chlorophenyl)-2-(difluoromethoxy)-5-(1H-1,2,3,4-tetrazol-1-ylmethyl)pyridine]
21 | < 100 | FC(F)Oc1ncc(Cn2ncnn2)cc1-c1cccc(Cl)c1 [Example 162, 3-(3-Chlorophenyl)-2-(difluoromethoxy)-5-(2H-1,2,3,4-tetrazol-2-ylmethyl)pyridine]
22 | < 100 | CCOc1ncc(Cn2cnc(C(F)(F)F)n2)cc1-c1cccc(OC(F)F)c1 [Example 163, 3-[3-(Difluoromethoxy)phenyl]-2-ethoxy-5-{[3-(trifluoromethyl)-1H-1,2,4-triazol-1-yl]methyl}pyridine]
23 | 100 to 1000 | CCOc1ncc(Cn2ncnc2C(F)(F)F)cc1-c1cccc(OC(F)F)c1 [Example 164, 3-[3-(Difluoromethoxy)phenyl]-2-ethoxy-5-{[5-(trifluoromethyl)-1H-1,2,4-triazol-1-yl]methyl}pyridine]
24 | < 100 | CCOc1ncc(Cn2cnc(COC)n2)cc1-c1cccc(OC(F)F)c1 [Example 165, 3-[3-(Difluoromethoxy)phenyl]-2-ethoxy-5-{[3-(methoxymethyl)-1H-1,2,4-triazol-1-yl]methyl}pyridine]
25 | 100 to 1000 | CCOc1ncc(Cn2ncnc2COC)cc1-c1cccc(OC(F)F)c1 [Example 166, 3-[3-(Difluoromethoxy)phenyl]-2-ethoxy-5-{[5-(methoxymethyl)-1H-1,2,4-triazol-1-yl]methyl}pyridine]
26 | 100 to 1000 | COc1ncc(Cn2cc(Cl)cn2)cc1-c1cccc(OC(F)F)c1 [Example 167, 5-[(4-Chloro-1H-pyrazol-1-yl)methyl]-3-[3-(difluoromethoxy)phenyl]-2-methoxypyridine]
27 | < 100 | CCOc1ncc(Cn2ccc(C(N)=O)n2)cc1-c1cccc(Cl)c1 [Example 168, 1-{[5-(3-Chlorophenyl)-6-ethoxypyridin-3-yl]methyl}-1H-pyrazole-3-carboxamide]
28 | 1000 to 10000 | CCOC(=O)c1cnn(Cc2cnc(OC)c(-c3cccc(Cl)c3)c2)c1 [Example 169, Ethyl 1-{[5-(3-chlorophenyl)-6-methoxypyridin-3-yl]methyl}-1H-pyrazole-4-carboxylate]
29 | 100 to 1000 | COc1ncc(Cn2cc(C#N)cn2)cc1-c1cccc(Cl)c1 [Example 170, 1-{[5-(3-Chlorophenyl)-6-methoxypyridin-3-yl]methyl}-1H-pyrazole-4-carbonitrile]
30 | 100 to 1000 | COc1ncc(Cn2cncn2)cc1-c1ccncc1 [Example 171, 2-Methoxy-3-(pyridin-4-yl)-5-(1H-1,2,4-triazol-1-ylmethyl)pyridine]
31 | 1000 to 10000 | COc1ncc(Cn2cc(NC(C)=O)cn2)cc1-c1cccc(Cl)c1 [Example 172, N-(1-{[5-(3-Chlorophenyl)-6-methoxypyridin-3-yl]methyl}-1H-pyrazol-4-yl)acetamide]

From patent US9120770B2, “Substituted pyridine and pyrazine compounds as PDE4 inhibitors” (DART NEUROSCIENCE (CAYMAN) LTD., priority 2013, dated 2015)
